Assay results as given in ChEMBL document CHEMBL5257159, “Insights into targeting SARS-CoV-2: design, synthesis, in silico studies and antiviral evaluation of new dimethylxanthine derivatives” (RSC Med Chem, 2023).
Calls of active or inactive are those of the source. The rule behind the calls is not given here.

Key:
SK-MEL-28 = experiment: Cytotoxicity against human SK-MEL-28 cells assessed as inhibition of cell growth incubated for 48 hrs by SRB assay; format: functional, cell-based
SW-620 = experiment: Cytotoxicity against human SW620 cells assessed as inhibition of cell growth incubated for 48 hrs by SRB assay; format: functional, cell-based
EKVX = experiment: Cytotoxicity against human EKVX cells assessed as inhibition of cell growth incubated for 48 hrs by SRB assay; format: functional, cell-based
T47D = experiment: Cytotoxicity against human T47D cells assessed as inhibition of cell growth incubated for 48 hrs by SRB assay; format: functional, cell-based
MOLT-4 = experiment: Cytotoxicity against human MOLT-4 cells assessed as inhibition of cell growth incubated for 48 hrs by SRB assay; format: functional, cell-based
TK-10 = experiment: Cytotoxicity against human TK-10 cells assessed as inhibition of cell growth incubated for 48 hrs by SRB assay; format: functional, cell-based
COLO 205 = experiment: Cytotoxicity against human COLO 205 cells assessed as inhibition of cell growth incubated for 48 hrs by SRB assay; format: functional, cell-based
MDA-MB-468 = experiment: Cytotoxicity against human MDA-MB-468 cells assessed as inhibition of cell growth incubated for 48 hrs by SRB assay; format: functional, cell-based
NCI-H226 = experiment: Cytotoxicity against human NCI-H226 cells assessed as inhibition of cell growth incubated for 48 hrs by SRB assay; format: functional, cell-based
SNB-75 = experiment: Cytotoxicity against human SNB-75 cells assessed as inhibition of cell growth incubated for 48 hrs by SRB assay; format: functional, cell-based
SF-268 = experiment: Cytotoxicity against human SF-268 cells assessed as inhibition of cell growth incubated for 48 hrs by SRB assay; format: functional, cell-based
NCI/ADR-RES = experiment: Cytotoxicity against human NCI/ADR-RES cells assessed as inhibition of cell growth incubated for 48 hrs by SRB assay; format: functional, cell-based
DU-145 = experiment: Cytotoxicity against human DU-145 cells assessed as inhibition of cell growth incubated for 48 hrs by SRB assay; format: functional, cell-based
U-251 = experiment: Cytotoxicity against human U-251 cells assessed as inhibition of cell growth incubated for 48 hrs by SRB assay; format: functional, cell-based
NCI-H23 = experiment: Cytotoxicity against human NCI-H23 cells assessed as inhibition of cell growth incubated for 48 hrs by SRB assay; format: functional, cell-based
HOP-92 = experiment: Cytotoxicity against human HOP-92 cells assessed as inhibition of cell growth incubated for 48 hrs by SRB assay; format: functional, cell-based
SF-295 = experiment: Cytotoxicity against human SF-295 cells assessed as inhibition of cell growth incubated for 48 hrs by SRB assay; format: functional, cell-based
A498 = experiment: Cytotoxicity against human A498 cells assessed as inhibition of cell growth incubated for 48 hrs by SRB assay; format: functional, cell-based
HCC 2998 = experiment: Cytotoxicity against human HCC 2998 cells assessed as inhibition of cell growth incubated for 48 hrs by SRB assay; format: functional, cell-based
[1] = Selectivity index, ratio of CC50 for african green monkey Vero E6 cells to IC50 for antiviral activity against SARS-CoV-2 NRC-03-nhCoV infected in african green monkey Vero E6 cells; format: toxicity, Vero C1008; conditions: read-out: Ratio CC50/IC50
HCT-15 = experiment: Cytotoxicity against human HCT-15 cells assessed as inhibition of cell growth incubated for 48 hrs by SRB assay; format: functional, cell-based
OVCAR-8 = experiment: Cytotoxicity against human OVCAR-8 cells assessed as inhibition of cell growth incubated for 48 hrs by SRB assay; format: functional, cell-based
HT-29 = experiment: Cytotoxicity against human HT-29 cells assessed as inhibition of cell growth incubated for 48 hrs by SRB assay; format: functional, cell-based
HCT-116 = experiment: Cytotoxicity against human HCT-116 cells assessed as inhibition of cell growth incubated for 48 hrs by SRB assay; format: functional, cell-based
MDA-MB-231 = experiment: Cytotoxicity against human MDA-MB-231 cells assessed as inhibition of cell growth incubated for 48 hrs by SRB assay; format: functional, cell-based
LOX IMVI = experiment: Cytotoxicity against human LOX IMVI cells assessed as inhibition of cell growth incubated for 48 hrs by SRB assay; format: functional, cell-based
[2] = Cytotoxicity against African green monkey Vero E6 cells measured after 72 hrs by MTT assay; format: toxicity, cell-based, Vero C1008; conditions: chlorocebus sabaeus
NCI-H522 = experiment: Cytotoxicity against human NCI-H522 cells assessed as inhibition of cell growth incubated for 48 hrs by SRB assay; format: functional, cell-based
OVCAR-5 = experiment: Cytotoxicity against human OVCAR-5 cells assessed as inhibition of cell growth incubated for 48 hrs by SRB assay; format: functional, cell-based
SF-539 = experiment: Cytotoxicity against human SF-539 cells assessed as inhibition of cell growth incubated for 48 hrs by SRB assay; format: functional, cell-based
M14 = experiment: Cytotoxicity against human M14 cells assessed as inhibition of cell growth incubated for 48 hrs by SRB assay; format: functional, cell-based
OVCAR-3 = experiment: Cytotoxicity against human OVCAR-3 cells assessed as inhibition of cell growth incubated for 48 hrs by SRB assay; format: functional, cell-based
MCF7 = experiment: Cytotoxicity against human MCF7 cells assessed as inhibition of cell growth incubated for 48 hrs by SRB assay; format: functional, cell-based
SK-MEL-5 = experiment: Cytotoxicity against human SK-MEL-5 cells assessed as inhibition of cell growth incubated for 48 hrs by SRB assay; format: functional, cell-based
UACC-257 = experiment: Cytotoxicity against human UACC-257 cells assessed as inhibition of cell growth incubated for 48 hrs by SRB assay; format: functional, cell-based
Malme-3M = experiment: Cytotoxicity against human Malme-3M cells assessed as inhibition of cell growth incubated for 48 hrs by SRB assay; format: functional, cell-based
BT-549 = experiment: Cytotoxicity against human BT-549 cells assessed as inhibition of cell growth incubated for 48 hrs by SRB assay; format: functional, cell-based
SNB-19 = experiment: Cytotoxicity against human SNB-19 cells assessed as inhibition of cell growth incubated for 48 hrs by SRB assay; format: functional, cell-based
KM12 = experiment: Cytotoxicity against human KM12 cells assessed as inhibition of cell growth incubated for 48 hrs by SRB assay; format: functional, cell-based
IGROV-1 = experiment: Cytotoxicity against human IGROV-1 cells assessed as inhibition of cell growth incubated for 48 hrs by SRB assay; format: functional, cell-based
NCI-H460 = experiment: Cytotoxicity against human NCI-H460 cells assessed as inhibition of cell growth incubated for 48 hrs by SRB assay; format: functional, cell-based
CCRF-CEM = experiment: Cytotoxicity against human CCRF-CEM cells assessed as inhibition of cell growth incubated for 48 hrs by SRB assay; format: functional, cell-based
OVCAR-4 = experiment: Cytotoxicity against human OVCAR-4 cells assessed as inhibition of cell growth incubated for 48 hrs by SRB assay; format: functional, cell-based
ACHN = experiment: Cytotoxicity against human ACHN cells assessed as inhibition of cell growth incubated for 48 hrs by SRB assay; format: functional, cell-based
A549 = experiment: Cytotoxicity against human A549 cells assessed as inhibition of cell growth incubated for 48 hrs by SRB assay; format: functional, cell-based
HL-60(TB) = experiment: Cytotoxicity against human HL-60(TB) cells assessed as inhibition of cell growth incubated for 48 hrs by SRB assay; format: functional, cell-based
K562 = experiment: Cytotoxicity against human K562 cells assessed as inhibition of cell growth incubated for 48 hrs by SRB assay; format: functional, cell-based
RXF 393 = experiment: Cytotoxicity against human RXF 393 cells assessed as inhibition of cell growth incubated for 48 hrs by SRB assay; format: functional, cell-based

Structure (SMILES): Cn1cnc2c1c(=O)n(CC(=O)Nc1ccc(S(=O)(=O)Nc3ncccn3)cc1)c(=O)n2C
- Activity (SK-MEL-28): inactive
- Activity (SW-620): inactive
- Activity (EKVX): inactive
- Activity (T47D): inactive
- Activity (MOLT-4): inactive
- Activity (TK-10): inactive
- Activity (COLO 205): inactive
- Activity (MDA-MB-468): inactive
- Activity (NCI-H226): inactive
- Activity (SNB-75): inactive
- Activity (SF-268): inactive
- Activity (NCI/ADR-RES): inactive
- Activity (DU-145): inactive
- Activity (U-251): inactive
- Activity (NCI-H23): inactive
- Activity (HOP-92): inactive
- Activity (SF-295): inactive
- Activity (A498): inactive
- Activity (HCC 2998): inactive
- selectivity ratio [1]: 129
- Activity (HCT-15): inactive
- Activity (OVCAR-8): inactive
- Activity (HT-29): inactive
- Activity (HCT-116): inactive
- Activity (MDA-MB-231): inactive
- Activity (LOX IMVI): inactive
- CC50 at 72 h [2]: 1.15 mM
- Activity (NCI-H522): inactive
- Activity (OVCAR-5): inactive
- Activity (SF-539): inactive
- Activity (M14): inactive
- Activity (OVCAR-3): inactive
- Activity (MCF7): inactive
- Activity (SK-MEL-5): inactive
- Activity (UACC-257): inactive
- Activity (Malme-3M): inactive
- Activity (BT-549): inactive
- Activity (SNB-19): inactive
- Activity (KM12): inactive
- Activity (IGROV-1): inactive
- Activity (NCI-H460): inactive
- Activity (CCRF-CEM): inactive
- Activity (OVCAR-4): inactive
- Activity (ACHN): inactive
- Activity (A549): inactive
- Activity (HL-60(TB)): inactive
- Activity (K562): inactive
- Activity (RXF 393): inactive

Structure (SMILES): Cn1c(=O)c2c(ncn2CCC(=O)Nc2ccc(S(=O)(=O)Nc3ncccn3)cc2)n(C)c1=O
- Activity (SK-MEL-28): inactive
- Activity (SW-620): inactive
- Activity (EKVX): inactive
- Activity (T47D): inactive
- Activity (MOLT-4): inactive
- Activity (TK-10): inactive
- Activity (COLO 205): inactive
- Activity (MDA-MB-468): inactive
- Activity (NCI-H226): inactive
- Activity (SNB-75): inactive
- Activity (SF-268): inactive
- Activity (NCI/ADR-RES): inactive
- Activity (DU-145): inactive
- Activity (U-251): inactive
- Activity (NCI-H23): inactive
- Activity (HOP-92): inactive
- Activity (SF-295): inactive
- Activity (A498): inactive
- Activity (HCC 2998): inactive
- selectivity ratio [1]: 103
- Activity (HCT-15): inactive
- Activity (OVCAR-8): inactive
- Activity (HT-29): inactive
- Activity (HCT-116): inactive
- Activity (MDA-MB-231): inactive
- Activity (LOX IMVI): inactive
- CC50 at 72 h [2]: 3.94 mM
- Activity (NCI-H522): inactive
- Activity (OVCAR-5): inactive
- Activity (SF-539): inactive
- Activity (M14): inactive
- Activity (OVCAR-3): inactive
- Activity (MCF7): inactive
- Activity (SK-MEL-5): inactive
- Activity (UACC-257): inactive
- Activity (Malme-3M): inactive
- Activity (BT-549): inactive
- Activity (SNB-19): inactive
- Activity (KM12): inactive
- Activity (IGROV-1): inactive
- Activity (NCI-H460): inactive
- Activity (CCRF-CEM): inactive
- Activity (OVCAR-4): inactive
- Activity (ACHN): inactive
- Activity (A549): inactive
- Activity (HL-60(TB)): inactive
- Activity (K562): inactive
- Activity (RXF 393): inactive
